Measured values as given in patent EP0310305B1 (priority 1987, dated 1989).
Where two headings read alike, the source gives them in different places.

Key:
[1] = test system: male rats (Crj Wister Rat; 180 - 240 g); assay: animal or person; format: in vivo; conditions: for Entero-pooling ED₅₀: rat, in vivo, 30 min; for ED50: Rattus norvegicus, 0.5 h
Male Crj Wister rats = assay: animal or person; format: in vivo; conditions: Rattus norvegicus, po, 6 h, read-out: Cathartic Effect ED50
Ileum = assay: tissue or blood; conditions: Rattus norvegicus
healthy male volunteers = conditions: human, in vivo, po
[2] = read-out: Intestinal Contrac-tion
[3] = read-out: Intestinal Contraction

In the case of “13,14-dihydro-15-keto-16R,S-fluoro-Δ²-PGA₁ [Test Drug 9]”, the “Entero-pooling ED₅₀” value [1] is reported as 0.2 mg/kg.

“13,14-dihydro-15-keto-16R,S-fluoro-Δ²-PGA₁ methyl ester [Test Drug 10]” was tested, and the “Entero-pooling ED₅₀” value [1] was 0.2 mg/kg.

With `CCCCC[C@H](O)/C=C/[C@H]1[C@H](O)CC(=O)[C@@H]1C/C=C\CCCC(=O)O` [Test Drug 1, Prostaglandin E2, reference compound] the ED50 (Male Crj Wister rats) was over 10 mg/kg, the ED50 ([1]; read-out: Entero-pooling ED50) was 0.13 mg/kg and the EC50 (Ileum; [2]) was under 1 µM.

With `CCCCC(F)C(=O)CC[C@H]1[C@H](O)CC(=O)[C@@H]1C/C=C\CCCC(=O)OC` (stereo partly shown) [Test Drug 2, 13,14-dihydro-15-keto-16R,S-fluoro-prostaglandin] the “abnormality or malaise in belly at 8 hours after administration” value (healthy male volunteers) was “no particular abnormality nor malaise in belly”, the clinical observation (healthy male volunteers) was “no abnormality” and the other side effects (healthy male volunteers) was “no one complained of other side effects such as bellyache”. It also gave an ED50 (Male Crj Wister rats) of 0.8 mg/kg, an ED50 ([1]; read-out: Entero-pooling ED50) of 0.003 mg/kg and an EC50 (Ileum; [2]) of 1 to 100 µM.

For `CCCCC(F)C(=O)CC[C@H]1[C@H](O)CC(=O)[C@@H]1C/C=C\CCCC(=O)OCC` (stereo partly shown) [Test Drug 4, 13,14-dihydro-15-keto-16R,S-fluoro-PGE₂ ethyl ester], the ED50 ([1]; read-out: Enteropooling ED₅₀) was 0.002 mg/kg and the EC50 (Ileum; [3]) was 1 to 100 µM.

For `CCCCCC(F)C(=O)CC[C@H]1[C@H](O)CC(=O)[C@@H]1C/C=C\CCCC(=O)OC` (stereo partly shown) [Test Drug 5, 13,14-dihydro-15-keto-16R,S-fluoro-20-methyl-PGE₂ methyl ester], the ED50 ([1]; read-out: Enteropooling ED₅₀) was 0.002 mg/kg and the EC50 (Ileum; [3]) was 1 to 100 µM.

Compound `CCCCC(F)C(=O)/C=C/[C@H]1[C@H](O)CC(=O)[C@@H]1C/C=C\CCCC(=O)O` (stereo partly shown) [Test Drug 6, 15-keto-16R,S-fluoro-PGE₂] has an ED50 ([1]; read-out: Enteropooling ED₅₀) of 0.002 mg/kg and an EC50 (Ileum; [3]) of 1 to 100 µM.

For `CCCCC(F)C(=O)/C=C/[C@H]1[C@H](O)CC(=O)[C@@H]1C/C=C\CCCC(=O)OC` (stereo partly shown) [Test Drug 7, 15-keto-16R,S-fluoro-PGE₂ methyl ester], the ED50 ([1]; read-out: Enteropooling ED₅₀) was 0.002 mg/kg and the EC50 (Ileum; [3]) was 1 to 100 µM.

In the case of `CCCCC(F)(F)C(=O)CC[C@H]1[C@H](O)CC(=O)[C@@H]1C/C=C\CCCC(=O)OC` [Test Drug 8, 13,14-dihydro-15-keto-16,16-difluoro-PGE₂ methyl ester], the ED50 ([1]; read-out: Enteropooling ED₅₀) is reported as 0.0002 mg/kg and the EC50 (Ileum; [3]) is reported as 1 to 100 µM.

`CCCCC[C@H](O)/C=C/[C@H]1C=CC(=O)[C@@H]1CCCCCCC(=O)O` [Test Drug 11, PGA₁, reference compound] gave an ED50 ([1]; read-out: Entero-pooling ED₅₀) of 4 mg/kg.

`CCCCC(F)C(=O)CC[C@@H]1[C@@H](C/C=C\CCCC(=O)O)[C@@H](O)C[C@H]1O` (stereo partly drawn) [Test Drug 12, 13,14-dihydro-15-keto-16R,S-fluoro-PGF₂α] was tested, and the ED50 ([1]; read-out: Entero-pooling ED₅₀) was 0.2 mg/kg and the EC50 (Ileum; [3]) was over 100 µM.

`CCCCC(F)C(=O)CC[C@@H]1[C@@H](C/C=C\CCCC(=O)OC)[C@@H](O)C[C@H]1O` (stereo partly drawn) [Test Drug 13, 13,14-dihydro-15-keto-16R,S-fluoro-PGF₂α methyl ester] was tested, and the ED50 ([1]; read-out: Entero-pooling ED₅₀) was 0.14 mg/kg.

`CCCCC(F)(F)C(=O)CC[C@@H]1[C@@H](C/C=C\CCCC(=O)OC)[C@@H](O)C[C@H]1O` [Test Drug 14, 13,14-dihydro-15-keto-16,16-difluoro-PGF₂α methyl ester] was tested, and the ED50 ([1]; read-out: Entero-pooling ED₅₀) was 0.2 mg/kg and the EC50 (Ileum; [3]) was 1 to 100 µM.

For `CCCCCC(F)C(=O)CC[C@@H]1[C@@H](C/C=C\CCCC(=O)OC)[C@@H](O)C[C@H]1O` (stereo partly drawn) [Test Drug 15, 13,14-dihydro-15-keto-16R,S-fluoro-20-methyl-PGF₂α methyl ester], the ED50 ([1]; read-out: Entero-pooling ED₅₀) was 0.3 mg/kg and the EC50 (Ileum; [3]) was 1 to 100 µM.

`CCCCCCC(F)C(=O)CC[C@@H]1[C@@H](C/C=C\CCCC(=O)O)[C@@H](O)C[C@H]1O` (stereo partly drawn) [Test Drug 16, 13,14-dihydro-15-keto-20-ethyl-16R,S-fluoro-PGF₂α] gave an ED50 ([1]; read-out: Entero-pooling ED₅₀) of 0.7 mg/kg and an EC50 (Ileum; [3]) of over 100 µM.

`CCCCCCC(F)C(=O)CC[C@@H]1[C@@H](C/C=C\CCCC(=O)OC)[C@@H](O)C[C@H]1O` (stereo partly drawn) [Test Drug 17, 13,14-dihydro-15-keto-20-ethyl-16R,S-fluoro-PGF₂α methyl ester] gave an ED50 ([1]; read-out: Entero-pooling ED₅₀) of 0.6 mg/kg and an EC50 (Ileum; [3]) of 1 to 100 µM.

`CCCCC(F)C(=O)/C=C/[C@@H]1[C@@H](C/C=C\CCCC(=O)OC)[C@@H](O)C[C@H]1O` (stereo partly drawn) [Test Drug 18, 15-keto-16-R,S-fluoro-PGF₂α methyl ester] showed an ED50 ([1]; read-out: Entero-pooling ED₅₀) of 0.15 mg/kg and an EC50 (Ileum; [3]) of over 100 µM.

Work on `CCCCC[C@H](O)/C=C/[C@@H]1[C@@H](C/C=C\CCCC(=O)O)[C@@H](O)C[C@H]1O` [Test Drug 19, PGF₂α, reference compound] yielded an ED50 ([1]; read-out: Entero-pooling ED₅₀) of 4.9 mg/kg and an EC50 (Ileum; [3]) of under 1 µM.
